# Literature values in patent US12036313B2, “Personal lubricants comprising lambda-carrageenan” (LANVIRA, LLC, priority 2018, dated 2024).
# Tested on: HPV
# Conditions: in vitro and in vivo
substance,measurement,value
lambda-carrageenan,Activity against HPV,active against HPV
